Experimental data reported in ChEMBL document CHEMBL1142171, “Identification and structural characterization of I84C and I84A mutations that are associated with high-level resistance to human immunodeficiency virus protease inhibitors and impair viral replication” (2007).

How the values were obtained:
Format in all cases: functional, HEK293
[1] = test system: Human immunodeficiency virus 1; assay: Antiviral activity against HIV1 A1 isolate with protease I84A mutation in HEK 293 cells relative to wild type
[2] = test system: Human immunodeficiency virus 1; assay: Antiviral activity against HIV1 A9 isolate with protease I84A mutation in HEK 293 cells relative to wild type
[3] = test system: Human immunodeficiency virus 1; assay: Antiviral activity against HIV1 A10 isolate with protease I84A mutation in HEK 293 cells relative to wild type
[4] = test system: Human immunodeficiency virus 1; assay: Antiviral activity against HIV1 A11 isolate with protease I84A mutation in HEK 293 cells relative to wild type
[5] = test system: Human immunodeficiency virus 1; assay: Antiviral activity against HIV1 A12 isolate with protease I84A mutation in HEK 293 cells relative to wild type
[6] = test system: Human immunodeficiency virus 1; assay: Antiviral activity against HIV1 A13 isolate with protease I84A mutation in HEK 293 cells relative to wild type
[7] = test system: Human immunodeficiency virus 1; assay: Antiviral activity against HIV1 A14 isolate with protease I84A mutation in HEK 293 cells relative to wild type
[8] = test system: Human immunodeficiency virus 1; assay: Antiviral activity against HIV1 A15 isolate with protease I84A mutation in HEK 293 cells relative to wild type
[9] = test system: Human immunodeficiency virus 1; assay: Antiviral activity against HIV1 C9 isolate with protease I84C mutation in HEK 293 cells relative to wild type
[10] = test system: Human immunodeficiency virus 1; assay: Antiviral activity against HIV1 C10 isolate with protease I84C mutation in HEK 293 cells relative to wild type
[11] = test system: Human immunodeficiency virus 1; assay: Antiviral activity against HIV1 C11 isolate with protease I84C mutation in HEK 293 cells relative to wild type
[12] = test system: Human immunodeficiency virus 1; assay: Antiviral activity against HIV1 A8 isolate with protease I84A mutation in HEK 293 cells relative to wild type
[13] = test system: Human immunodeficiency virus 1; assay: Antiviral activity against HIV1 A2 isolate with protease I84A mutation in HEK 293 cells relative to wild type
[14] = test system: Human immunodeficiency virus 1; assay: Antiviral activity against HIV1 A3 isolate with protease I84A mutation in HEK 293 cells relative to wild type
[15] = test system: Human immunodeficiency virus 1; assay: Antiviral activity against HIV1 A4 isolate with protease I84A mutation in HEK 293 cells relative to wild type
[16] = test system: Human immunodeficiency virus 1; assay: Antiviral activity against HIV1 A5 isolate with protease I84A mutation in HEK 293 cells relative to wild type
[17] = test system: Human immunodeficiency virus 1; assay: Antiviral activity against HIV1 A6 isolate with protease I84A mutation in HEK 293 cells relative to wild type
[18] = test system: Human immunodeficiency virus 1; assay: Antiviral activity against HIV1 A7 isolate with protease I84A mutation in HEK 293 cells relative to wild type
[19] = test system: Human immunodeficiency virus 1; assay: Antiviral activity against HIV1 C1 isolate with protease I84C mutation in HEK 293 cells relative to wild type
[20] = test system: Human immunodeficiency virus 1; assay: Antiviral activity against HIV1 C2 isolate with protease I84C mutation in HEK 293 cells relative to wild type
[21] = test system: Human immunodeficiency virus 1; assay: Antiviral activity against HIV1 C3 isolate with protease I84C mutation in HEK 293 cells relative to wild type
[22] = test system: Human immunodeficiency virus 1; assay: Antiviral activity against HIV1 C4 isolate with protease I84C mutation in HEK 293 cells relative to wild type
[23] = test system: Human immunodeficiency virus 1; assay: Antiviral activity against HIV1 C5 isolate with protease I84C mutation in HEK 293 cells relative to wild type
[24] = test system: Human immunodeficiency virus 1; assay: Antiviral activity against HIV1 C6 isolate with protease I84C mutation in HEK 293 cells relative to wild type
[25] = test system: Human immunodeficiency virus 1; assay: Antiviral activity against HIV1 C7 isolate with protease I84C mutation in HEK 293 cells relative to wild type
[26] = test system: Human immunodeficiency virus 1; assay: Antiviral activity against HIV1 C8 isolate with protease I84C mutation in HEK 293 cells relative to wild type
[27] = test system: Human immunodeficiency virus 1; assay: Resistance to HIV1 with protease 46I, 54V and I84V mutation in HEK 293 cells relative to similar background
[28] = test system: Human immunodeficiency virus 1; assay: Resistance to HIV1 with protease 46M, 54I and I84V mutation in HEK 293 cells relative to similar background
[29] = test system: Human immunodeficiency virus 1; assay: Resistance to HIV1 with protease 46M, 54I and I84C mutation in HEK 293 cells relative to similar background
[30] = test system: Human immunodeficiency virus 1; assay: Resistance to HIV1 with protease 46I, 54I and I84V mutation in HEK 293 cells relative to similar background
[31] = test system: Human immunodeficiency virus 1; assay: Resistance to HIV1 with protease 46I, 54I and I84A mutation in HEK 293 cells relative to similar background
[32] = test system: Human immunodeficiency virus 1; assay: Resistance to HIV1 with protease 46I/L, 54I and I84C mutation in HEK 293 cells relative to similar background
[33] = test system: Human immunodeficiency virus 1; assay: Resistance to HIV1 with protease 46I, 54M/V and I84A mutation in HEK 293 relative to similar background

Structure (SMILES) | Fold change [1] | Fold change [2] | Fold change [3] | Fold change [4] | Fold change [5] | Fold change [6] | Fold change [7] | Fold change [8] | Fold change [9] | Fold change [10] | Fold change [11] | Fold change [12] | Fold change [14] | Fold change [15] | Fold change [16] | Fold change [17] | Fold change [18] | Fold change [19] | Fold change [21] | Fold change [22] | also measured
COC(=O)N[C@H](C(=O)N[C@@H](Cc1ccccc1)[C@@H](O)CN(Cc1ccc(-c2ccccn2)cc1)NC(=O)[C@@H](NC(=O)OC)C(C)(C)C)C(C)(C)C [ATAZANAVIR] | 38 | 52 | 700 | 63 | 25 | 700 | 21 | 253 | 9.1 | 19 | 5 |  |  |  |  |  |  |  |  |  | 
CC(C)(C)NC(=O)[C@@H]1C[C@@H]2CCCC[C@@H]2CN1C[C@@H](O)[C@H](Cc1ccccc1)NC(=O)[C@H](CC(N)=O)NC(=O)c1ccc2ccccc2n1 | 1000 | 1000 | 1000 | 1000 | 1000 | 1000 | 69 | 1000 |  | 242 |  | 265.5 | 365 | 241 | 256 | 24 | 1000 | 6.1 | 56 | 92 | Fold change [13]: 141; Fold change [20]: 14; Fold change [23]: 41; Fold change [24]: 24; Fold change [25]: 1000; Fold change [26]: 68; Fold change [27]: 20; Fold change [28]: 4.3; Fold change [29]: 56; Fold change [30]: 4.3; Fold change [31]: 261; Fold change [32]: 80; Fold change [33]: >1000
Cc1cccc(C)c1OCC(=O)N[C@@H](Cc1ccccc1)[C@@H](O)C[C@H](Cc1ccccc1)NC(=O)[C@H](C(C)C)N1CCCNC1=O [LOPINAVIR] | 10 | 16 | 59 | 14 | 210 | 50 | 104 | 75 | 2.3 | 5.1 | 2.8 | 94 | 11 | 14 | 9 | 14 | 124 | 0.4 | 1.6 | 3.1 | Fold change [23]: 3.1; Fold change [24]: 47; Fold change [25]: 7.2; Fold change [26]: 2.9; Fold change [27]: 80; Fold change [28]: 2.8; Fold change [29]: 2.2; Fold change [30]: 8.9; Fold change [31]: 14; Fold change [32]: 3.1; Fold change [33]: 75
